According to the NIST ThermoML archive (doi:10.1016/j.jct.2014.04.012):
Numbers after ± are expanded uncertainties.

Experiment: xn = mol fraction of the nth substance listed
Conditions: 101.3 kPa, Liquid, Pycnometric method

Row | SMILES | mass density (293.15 K, x1 = 0.2) | mass density (293.15 K, x1 = 0.25) | mass density (303.15 K, x1 = 0.2) | mass density (303.15 K, x1 = 0.25) | mass density (313.15 K, x1 = 0.2) | mass density (313.15 K, x1 = 0.25) | mass density (323.15 K, x1 = 0.2) | mass density (323.15 K, x1 = 0.25) | mass density (293.15 K, x1 = 0.333) | mass density (303.15 K, x1 = 0.333) | mass density (313.15 K, x1 = 0.333) | mass density (323.15 K, x1 = 0.333) | mass density (293.15 K, x2 = 0.2) | mass density (293.15 K, x2 = 0.25) | mass density (303.15 K, x2 = 0.2) | mass density (303.15 K, x2 = 0.25) | mass density (313.15 K, x2 = 0.2) | mass density (313.15 K, x2 = 0.25) | mass density (323.15 K, x2 = 0.2) | mass density (323.15 K, x2 = 0.25)
1 | C[N+](C)(C)CCO.[Cl-] [choline chloride] + OCCOCCO | 1120.3 ± 1 kg/m3 | 1122.4 ± 1 kg/m3 | 1113 ± 1 kg/m3 | 1117.9 ± 1 kg/m3 | 1108.9 ± 1 kg/m3 | 1113 ± 1 kg/m3 | 1103.2 ± 1 kg/m3 | 1108.3 ± 1 kg/m3 |  |  |  |  |  |  |  |  |  |  |  | 
2 | C[N+](C)(C)CCO.[Cl-] [choline chloride] + Oc1ccccc1 | 1091.3 ± 1 kg/m3 | 1092.7 ± 1 kg/m3 | 1085.1 ± 1 kg/m3 | 1087.3 ± 1 kg/m3 | 1081.1 ± 1 kg/m3 | 1083.9 ± 1 kg/m3 | 1076 ± 1 kg/m3 | 1079.5 ± 1 kg/m3 | 1096.6 ± 1 kg/m3 | 1093.8 ± 1 kg/m3 | 1087.2 ± 1 kg/m3 | 1082.5 ± 1 kg/m3 |  |  |  |  |  |  |  | 
3 | OCCOCCOCCO [triethylene glycol] + C[N+](C)(C)CCO.[Cl-] |  |  |  |  |  |  |  |  |  |  |  |  | 1120.3 ± 1.1 kg/m3 | 1133.1 ± 1.1 kg/m3 | 1114.6 ± 1.1 kg/m3 | 1126.2 ± 1.1 kg/m3 | 1108.9 ± 1.1 kg/m3 | 1119.3 ± 1.1 kg/m3 | 1103.2 ± 1.1 kg/m3 | 1112.4 ± 1.1 kg/m3
